Assay results as given in patent publication US20210127673A1, “HERBICIDES” (SYNGENTA PARTICIPATIONS AG, priority 2016, published 2021).

Key:
Type in all cases: in vivo
Details in all cases: evaluated after 13 days
[1] = test system: Echinochloa crus-galli (ECHCG); assay: Pre-emergence herbicidal activity, Echinochloa crus-galli
Procedure, shortened: (§1)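 Pots of seeds were sprayed one day after sowing (pre-emergence) with compound in acetone/water (50:50) plus 0.5% Tween 20, then grown in a glasshouse at 24/16 °C day/night, 14 h light, 65% humidity. Damage scored 0–5 (5 = total damage) after 13 days.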

[2] = test system: Setaria faberi (SETFA); assay: Pre-emergence herbicidal activity, Setaria faberi; set-up: key: 5=total damage to plant; 0=no damage to plant
Procedure, shortened: as §1

[3] = test system: Setaria faberi (SETFA); assay: Post-emergence herbicidal activity, Setaria faberi; set-up: key: 5=total damage to plant; 0=no damage to plant
Procedure, shortened: (§2)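 Post-em, 8 d plants, pots; acetone:water 1:1 + 0.5% Tween 20 spray; 24/16 °C, 14 h photoperiod, 65% RH; 13 d readout, 0–5 phytotoxicity scale.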

[4] = test system: Echinochloa crus-galli (ECHCG); assay: Post-emergence herbicidal activity, Echinochloa crus-galli; set-up: key: 5=total damage to plant; 0=no damage to plant
Procedure, shortened: as §2

[5] = test system: Lolium perenne (LOLPE); assay: Post-emergence herbicidal activity, Lolium perenne; set-up: key: 5=total damage to plant; 0=no damage to plant
Procedure, shortened: as §2

[6] = test system: Alopecurus myosuroides (ALOMY); assay: Pre-emergence herbicidal activity, Alopecurus myosuroides; set-up: key: 5=total damage to plant; 0=no damage to plant
Procedure, shortened: as §1

[7] = test system: Lolium perenne (LOLPE); assay: Pre-emergence herbicidal activity, Lolium perenne; set-up: key: 5=total damage to plant; 0=no damage to plant
Procedure, shortened: as §1

[8] = test system: Avena fatua (AVEFA); assay: Post-emergence herbicidal activity, Avena fatua
Procedure, shortened: as §2

[9] = test system: Alopecurus myosuroides (ALOMY); assay: Post-emergence herbicidal activity, Alopecurus myosuroides; set-up: key: 5=total damage to plant; 0=no damage to plant
Procedure, shortened: as §2

[10] = test system: Triticum aestivium (TRZAW); assay: Pre-emergence herbicidal activity, Triticum aestivium; set-up: key: 5=total damage to plant; 0=no damage to plant
Procedure, shortened: as §1

[11] = test system: Avena fatua (AVEFA); assay: Pre-emergence herbicidal activity, Avena fatua; set-up: key: 5=total damage to plant; 0=no damage to plant
Procedure, shortened: as §1

[12] = test system: Triticum aestivium (TRZAW); assay: Post-emergence herbicidal activity, Triticum aestivium; set-up: key: 5=total damage to plant; 0=no damage to plant
Procedure, shortened: as §2

| Structure (SMILES) | Control of ECHCG after pre-emergence application (score 0-5) ([1]; 1000 g/ha) | Control of SETFA after pre-emergence application (score 0-5) ([2]; 1000 g/ha) | Control of SETFA after post-emergence application (score 0-5) ([3]; 1000 g/ha) | Control of ECHCG after post-emergence application (score 0-5) ([4]; 1000 g/ha) | Control of LOLPE after post-emergence application (score 0-5) ([5]; 1000 g/ha) | Control of ALOMY after pre-emergence application (score 0-5) ([6]; 1000 g/ha) | Control of LOLPE after pre-emergence application (score 0-5) ([7]; 1000 g/ha) | Control of AVEFA after post-emergence application (score 0-5) ([8]; 1000 g/ha) | Control of ALOMY after post-emergence application (score 0-5) ([9]; 1000 g/ha) | Control of TRAZW after pre-emergence application (score 0-5) ([10]; 1000 g/ha) | Control of AVEFA after pre-emergence application (score 0-5) ([11]; 1000 g/ha) | Control of TRAZW after post-emergence application (score 0-5) ([12]; 1000 g/ha) | also measured |
| --- | --- | --- | --- | --- | --- | --- | --- | --- | --- | --- | --- | --- | --- |
| CCC(C)OC(=O)Nc1ccc(-c2cncc(F)c2)nc1C(F)(F)F (stereo not drawn) [Compound B56] | 1 | 2 | 4 | 4 | 3 | 0 | 0 | 3 | 0 | 0 | 1 | 0 | – |
| CN(C(N)=O)c1ccc(-c2cncc(F)c2)nc1C(F)(F)F [Compound B72] | 2 | 4 | 4 | 4 | 1 | 0 | 0 | 1 | 1 | 0 | 0 | 1 | – |
| CSCCCNC(=O)Nc1ccc(-c2cncc(F)c2)nc1C(F)(F)F [Compound B98] | – | – | – | – | – | – | – | – | – | – | – | – | Control of ECHCG after pre-emergence application (score 0-5) ([1]; 250 g/ha): 1; Control of SETFA after pre-emergence application (score 0-5) ([2]; 250 g/ha): 4; Control of SETFA after post-emergence application (score 0-5) ([3]; 250 g/ha): 5; Control of ECHCG after post-emergence application (score 0-5) ([4]; 250 g/ha): 2; Control of LOLPE after post-emergence application (score 0-5) ([5]; 250 g/ha): 0; Control of ALOMY after pre-emergence application (score 0-5) ([6]; 250 g/ha): 0; Control of LOLPE after pre-emergence application (score 0-5) ([7]; 250 g/ha): 1; Control of AVEFA after post-emergence application (score 0-5) ([8]; 250 g/ha): 3; Control of ALOMY after post-emergence application (score 0-5) ([9]; 250 g/ha): 0; Control of TRAZW after pre-emergence application (score 0-5) ([10]; 250 g/ha): 0; Control of AVEFA after pre-emergence application (score 0-5) ([11]; 250 g/ha): 1; Control of TRAZW after post-emergence application (score 0-5) ([12]; 250 g/ha): 0 |
| CSCCCOC(=O)Nc1ccc(-c2cncc(F)c2)nc1C(F)(F)F [Compound B83] | 4 | 5 | 5 | 5 | 3 | 0 | 2 | 4 | 0 | 0 | 2 | 1 | – |
| CC(C)(C)OC(=O)Nc1ccc(-c2cncc(Cl)c2)nc1C(F)(F)F [Compound B6] | 3 | 5 | 5 | 4 | 4 | 1 | 1 | 3 | 1 | 0 | 2 | 1 | – |
| N#CCCOC(=O)Nc1ccc(-c2cncc(F)c2)nc1C(F)(F)F [Compound B62] | 3 | 3 | 4 | 5 | 2 | 1 | 1 | 3 | 0 | 0 | 2 | 0 | – |
